Literature values, collected in patent US20080254114A1, “Controlled Release Compositions Comprising Heterocyclic Amide Derivative Nanoparticles” (Elan Corporation plc, priority 2005, published 2008).

Experiments:
[1] = administration with food; high fat meal and high protein meal, two separate studies
[2] = system: leukotrienes (LTC4, LTD4 and LTE4); details: conducting airway smooth muscle, in vitro
[3] = system: bronchoconstriction
[4] = system: LTD4; details: inhaled LTD4
[5] = system: airway responses to antigen; details: sensitized sheep, inhalational challenge

reduction of mean bioavailability by food [1]: approximately 40%
solubility in acetone (acetone): freely soluble
solubility in dimethyl-sulfoxide (dimethyl-sulfoxide): freely soluble
solubility in methanol (methanol): slightly soluble
solubility in tetrahydrofuran (tetrahydrofuran): freely soluble
solubility in water (water): practically insoluble
Structure (SMILES): COc1cc(C(=O)NS(=O)(=O)c2ccccc2C)ccc1Cc1cn(C)c2ccc(NC(=O)OC3CCCC3)cc12 [Zafirlukast, 4-(5-cyclopentyloxy-carbonylamino-1-methyl-indol-3-ylmethyl)-3-methoxy-N-o-tolylsulfonylbenzamide]
contractile activity of LTC4, LTD4 and LTE4 [2]: antagonized
increase in bronchial hyperresponsiveness to inhaled histamine ([3]; following inhaled allergen challenge): attenuated
early- and late-phase reaction caused by inhalation of antigens (grass, cat dander, ragweed, mixed antigens) ([3]; patients with asthma, pretreatment with single doses): attenuated
bronchoconstriction caused by sulfur dioxide and cold air ([3]; patients with asthma, pretreatment with single oral doses): inhibited
LTD4-induced influx of eosinophils into animal lungs [4]: inhibited
airway responses to antigen (early- and late-phase response, nonspecific hyperresponsiveness) [5]: suppressed
